Positions count from the first letter of the chain named. Residues, ends and D or L forms follow the SMILES beside them. *: point of attachment. X1 = CC[N+]1=C(C=CC=CC=C2N(CCCCCC(=O)NCCN3C(=O)CC(*)C3=O)c3ccc(S(=O)(=O)[O-])cc3C2(C)C)C(C)(C)c2cc(S(=O)(=O)O)ccc21
Key:
[1] = molecular target: T1, TAPL Y405A mutant (Mus musculus, UniProt Q9JJ59, Y405A); test: Microscale thermophoresis, DM-purified Y405A; assay type: binding; conditions: Y405A vs wild-type
T1 construct: thrombin cleavage site (C); eGFP (C); 10XHis (C); made in house; host or cells: Trichoplusia ni High Five (Hi5) insect cells, baculovirus (pVL1393)
T1 sequence (Q9JJ59 143-762 Y405A): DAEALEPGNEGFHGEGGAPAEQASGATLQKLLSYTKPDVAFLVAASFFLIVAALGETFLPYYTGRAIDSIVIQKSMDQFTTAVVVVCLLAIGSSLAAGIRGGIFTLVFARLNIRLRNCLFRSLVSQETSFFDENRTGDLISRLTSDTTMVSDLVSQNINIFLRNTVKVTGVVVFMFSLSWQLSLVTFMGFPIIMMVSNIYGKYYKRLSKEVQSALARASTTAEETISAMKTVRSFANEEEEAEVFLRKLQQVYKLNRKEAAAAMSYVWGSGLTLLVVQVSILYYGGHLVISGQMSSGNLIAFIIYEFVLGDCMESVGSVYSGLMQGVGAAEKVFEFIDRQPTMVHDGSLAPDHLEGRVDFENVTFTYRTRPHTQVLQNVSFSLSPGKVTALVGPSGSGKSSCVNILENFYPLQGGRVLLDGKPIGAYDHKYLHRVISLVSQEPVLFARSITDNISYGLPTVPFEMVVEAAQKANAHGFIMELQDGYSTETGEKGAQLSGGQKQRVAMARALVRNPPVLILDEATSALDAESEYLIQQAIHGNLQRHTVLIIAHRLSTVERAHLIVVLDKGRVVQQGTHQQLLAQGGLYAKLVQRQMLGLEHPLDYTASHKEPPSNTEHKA
Description: Binding of 9-mer peptide (RRYQNSTC^Cy-5L) to DM-purified ΔTMD0 was monitored by microscale thermophoresis as described previously. Briefly, 9-mer peptide was incubated with a 10x molar excess of Cy5 dye (Thermo Fisher Scientific) in 50 mM HEPES–NaOH pH 7.5 at RT for 2 h. The labeled peptide was purified from the excess dye with a desalting column. Cy5-labeled peptide (0.2 μM) was added to serial 2-fold dilutions of protein. The mixtures were incubated for 10 min at RT and loaded onto Monolith NT.115 standard-treated capillaries (NanoTemper Technologies). Thermophoretic movements were induced by infrared laser activation. Subsequent fluorescence changes were monitored with a Monolith NT.115 pico device and plotted against protein concentration. The results were analyzed with MO.Affinity Analysis software.

[2] = design: method as in PMID 11867457; conditions: cited from earlier work
[3] = molecular target: T2, mouse TAPL ΔTMD0 (Mus musculus, UniProt Q9JJ59); test: NADH-coupled ATPase assay, nanodisc-reconstituted ΔTMD0; assay type: biochemical; conditions: POPE nanodiscs, data not shown
T2 construct: thrombin cleavage site (C); eGFP (C); 10XHis (C); made in house; host or cells: Trichoplusia ni High Five (Hi5) insect cells, baculovirus (pVL1393)
T2 sequence (Q9JJ59 143-762): T1 sequence (Q9JJ59 143-762 Y405A) with A263Y
Description: […] Each lipid was dissolved in 0.17% (w/v) DM and 0.017% (w/v) CHS and mixed with MSP1 and DM/CHS-purified ΔTMD0 at a molar ratio of 150:4:1. After incubation on ice for 10 min, the mixture was treated with 60 mg of Bio-beads (Bio-Rad) at 4 °C for 4 h to remove detergent. The supernatant was additionally incubated overnight with 120 mg of fresh Bio-Beads at 4 °C. The final supernatant was injected onto a Superdex 200 Increase 10/300 GL column equilibrated with a buffer of 20 mM HEPES–NaOH pH 7.5 and 200 mM NaCl. The elution fractions containing protein-loaded nanodiscs were pooled and used for cryo-EM and functional analyses.
The ATPase activities of proteins obtained after various purification procedures were determined by NADH-coupled spectrophotometric assays. 10 μg of DM-purified or nanodisc-reconstituted protein was added to 140 μL of reaction buffer containing 50 mM HEPES–KOH pH 8.0, 60 μg/mL pyruvate kinase (Roche), 16 μg/mL lactate dehydrogenase (Roche), 10 mM phosphoenolpyruvate (Roche), 0.3 mM NADH, 3 mM ATP, 10 mM MgCl2, and 0.17% (w/v) DM in the presence or absence of 250 μM peptide. […] ATP hydrolysis activity was monitored at 37 °C for 3 min by measuring the rate of decline of NADH absorbance at 340 nm. […] The kinetic parameters of ATP hydrolysis were calculated by fitting the initial rates of ATP hydrolysis to the Michaelis–Menten equation using PRISM 4.0 (GraphPad software).

[4] = Aggregation in ATPase reaction buffer; assay type: physicochemical; conditions: addition to the ATPase reaction buffer, data not shown
Description: The ATPase activities of proteins obtained after various purification procedures were determined by NADH-coupled spectrophotometric assays. 10 μg of DM-purified or nanodisc-reconstituted protein was added to 140 μL of reaction buffer containing 50 mM HEPES–KOH pH 8.0, 60 μg/mL pyruvate kinase (Roche), 16 μg/mL lactate dehydrogenase (Roche), 10 mM phosphoenolpyruvate (Roche), 0.3 mM NADH, 3 mM ATP, 10 mM MgCl2, and 0.17% (w/v) DM in the presence or absence of 250 μM peptide. For proteins reconstituted into nanodiscs, DM was not added to the reaction buffer. For lipid-stimulated ATPase assays, the thin film of lipids was hydrated in 100 μL of buffer containing 50 mM HEPES–KOH pH 8.0 and 10 mM MgCl2 to yield a 10 mM solution. After sonication of the lipid solution for 10 min to decrease its turbidity, the reaction was initiated by adding varying concentrations of lipids to the mixture. ATP hydrolysis activity was monitored at 37 °C for 3 min by measuring the rate of decline of NADH absorbance at 340 nm. To inhibit ATP hydrolysis, the reaction mixture was incubated with 3 mM AMP-PNP or 8 mM NaF/2 mM BeSO4 for 5 min at RT. The kinetic parameters of ATP hydrolysis were calculated by fitting the initial rates of ATP hydrolysis to the Michaelis–Menten equation using PRISM 4.0 (GraphPad software).

## CC[N+]1=C(C=CC=CC=C2N(CCCCCC(=O)NCCN3C(=O)CC(SC[C@H](NC(=O)[C@@H](NC(=O)[C@H](CO)NC(=O)[C@H](CC(N)=O)NC(=O)[C@H](CCC(N)=O)NC(=O)[C@H](Cc4ccc(O)cc4)NC(=O)[C@H](CCCNC(=N)N)NC(=O)[C@@H](N)CCCNC(=N)N)[C@@H](C)O)C(=O)N[C@@H](CC(C)C)C(=O)O)C3=O)c3ccc(S(=O)(=O)[O-])cc3C2(C)C)C(C)(C)c2cc(S(=O)(=O)O)ccc21 (stereo partly drawn) [RRYQNSTC^Cy-5L] (H-RRYQNSTC(X1)L-OH; N-terminus and C-terminus assumed)
[1]
  decrease in peptide affinity: 73 fold

## CC(C)CCC[C@@H](C)[C@H]1CC[C@H]2[C@@H]3CC=C4C[C@@H](O)CC[C@]4(C)[C@H]3CC[C@]12C [cholesterol]
[2]
  time of spontaneous movement across the liposome bilayer: < 1 min

## CCCCCCCC/C=C\CCCCCCCC(=O)O[C@H](COC(=O)CCCCCCCCCCCCCCC)COP(=O)(O)OCCN [POPE, 1-palmitoyl-2-oleoyl-sn-glycero-3-phosphoethanolamine]
[3]
  ΔTMD0 ATPase activity in nanodiscs: no ΔTMD0 activity was detected
[4]
  aggregation: caused nonspecific aggregation

— paper PMC9532399, “The lysosomal transporter TAPL has a dual role as peptide translocator and phosphatidylserine floppase” (Nature Communications, 2022)
